In brackets after ≈: the same amount, converted by molar mass.
Legend:
poliovirus 3 (PV3) = assay: microbe, parasite or virus in culture; format: cell-based; conditions: Enterovirus C, 72 h, read-out: EC50 PV3
in vitro = conditions: human
HRV 21 = assay: Cytopathic effect (CPE) inhibition assay; format: cell-based, human rhinovirus; conditions: Human rhinovirus sp., 72 h; host cell HeLa, 3 days, MEM/2% FBS, MTT assay; read-out: EC50 HRV 21
[1] = tested on: coxsackievirus B1 (Cox B1); assay: Multicycle cytopathic effect (CPE) reduction assay; format: cell-based; conditions: Enterovirus B, B1, 72 h, read-out: EC50 CoxB1
[2] = tested on: coxsackievirus B3 (Cox B3); assay: Multicycle cytopathic effect (CPE) reduction assay; format: cell-based; conditions: Enterovirus B, B3, 72 h, read-out: EC50 CoxB3
HRV 14 = assay: Cytopathic effect (CPE) inhibition assay; format: cell-based, human rhinovirus; conditions: Human rhinovirus sp., HeLa, 72 h, host cell HeLa, 3 days, MEM/2% FBS, MTT assay; read-out: EC50 HRV 14
[3] = Cytotoxicity (CC50) in multicycle CPE reduction assay, MTS; conditions: human
HRV 71 = assay: Cytopathic effect (CPE) inhibition assay; format: cell-based, human rhinovirus; conditions: Human rhinovirus sp., 72 h; host cell HeLa, 3 days, MEM/2% FBS, MTT assay; read-out: EC50 HRV 71

SMILES	EC50 (poliovirus 3 (PV3)) [µg/mL]	CC50 (in vitro) [µg/mL]	EC50 (HRV 21) [µg/mL]	EC50 [1] [µg/mL]	EC50 [2] [µg/mL]	EC50 (HRV 14) [µg/mL]	CC50 at 3 days [3] [µg/mL]	EC50 (HRV 71) [µg/mL]
CC(C)CC(=O)C(=O)NC12C(=O)c3cccc([N+](=O)[O-])c3C1(O)Oc1cc(C(C)C)ccc12 (stereo not shown) [Example 38, N-(4b hydroxyl-7-isopropyl-4-nitro-10-oxo-4b, 10-dihydro-9bH-indeno[1,2-b]benzofuran-9b-yl)-4-methyl-2-oxo pentanamide]	< 10	> 10	> 10	< 1	< 1	< 10	> 10	> 10
CC(C)c1ccc2c(c1)OC1(O)c3ccccc3C(=O)C21NC(=O)C(=O)CCc1ccccc1 (stereo not shown) [Example 39, N-(4b-hydroxy-7-isopropyl-10-oxo-4b, 10-dihydro-9bH-indeno[1,2-b]benzofuran-9b-yl)-2-oxo-4-phenyl butanamide]	< 10	9.5 (≈ 20.9 µM)	> 9.5	< 0.1	< 0.1	< 10	> 10	> 9.5
CCC(C)C(=O)C(=O)NC12C(=O)c3c(N)cccc3C1(O)Oc1cc(C(C)C)ccc12 (stereo not shown) [Example 40, N-(1-amino-4b-hydroxy-7-isopropyl-10-oxo-4b, 10-dihydro-9bH-indeno[1,2-b]benzofuran-9b-yl)-3-methyl-2-oxo pentanamide]	< 0.1	> 10	> 10	< 0.01	< 0.01	< 0.1	> 10	> 10
CC(C)c1ccc2c(c1)OC1(O)c3ccccc3C(=O)C21NC(=O)C(=O)CBr (stereo not shown) [Example 41, 3-bromo-N-(4b-hydroxy-7-isopropyl-10-oxo-4b, 10-dihydro-9bH-indeno[1,2-b]benzofuran-9b-yl)-2-oxo propanamide]	> 10	> 10	> 10	< 0.1	< 0.1	< 10	> 10	> 10
CC(C)c1ccc2c(c1)OC1(O)c3ccccc3C(=O)C21NC(=O)C(=O)CC(=O)c1ccncc1 (stereo not shown) [Example 42, N-(4b-hydroxy-7-isopropyl-10-oxo-4b, 10-dihydro-9bH-indeno[1,2-b]benzofuran-9b-yl)-2,4-dioxo-4-(pyridyn-4-yl)butanamide]	> 10	> 10	> 10	< 0.1	< 0.1	< 10	> 10	> 10
CC(C)c1ccc2c(c1)OC1(O)c3ccccc3C(=O)C21NC(=O)CCC(=O)O (stereo not shown) [Example 43]	> 10	> 10	> 10	< 1	< 1	> 10	> 10	> 10
CC(C)c1ccc2c(c1)OC1(O)c3ccccc3C(=O)C21NC#N (stereo not shown) [Example 46, N-(4b-hydroxy-7-isopropyl-10-oxo-4b, 10-dihydro-9bH-indeno[1,2-b]benzofuran-9b-yl)cyanamide]	> 10	> 10	> 10	< 10	< 10	> 10	> 10	> 10
CC(C)c1ccc2c(c1)OC1(O)c3ccccc3C(=O)C21NC(=O)C(=O)N1CCN(C)CC1 (stereo not shown) [Example 48, N-(4b-hydroxy-7-isopropyl-10-oxo-4b, 10-dihydro-9bH-indeno[1,2-b]benzofuran-9b-yl)-2-(4-methylpiperazin-1-yl)-2-oxo acetamide]	< 10	> 10	> 10	< 0.1	< 0.1	< 1	> 10	> 10
CC(C)CC(=O)C(=O)NC12C(=O)c3c(N)cccc3C1(O)Oc1cc(C(C)C)ccc12 (stereo not shown) [Example 49, N-(1-amino-4b-hydroxy-7-isopropyl-10-oxo-4b, 10-dihydro-9bH-indeno[1,2-b]benzofuran-9b-yl)-4-methyl-2-oxo pentanamide]	< 0.1	> 10	> 10	< 0.01	< 0.01	< 0.1	> 10	> 10
Cc1cc(C)c(C(=O)C(=O)NC23C(=O)c4cccc([N+](=O)[O-])c4C2(O)Oc2cc(C(C)C)ccc23)c(C)c1 (stereo not shown) [Example 51]	> 10	> 10	> 10	< 10	< 10	> 10	> 10	> 10
CCCC(=O)C(=O)NC12C(=O)c3c(N)cccc3C1(O)Oc1cc(C(C)C)ccc12 (stereo not shown) [Example 52, N-(1-amino-4b-hydroxy-7-isopropyl-10-oxo-4b, 10-dihydro-9bH-indeno[1,2-b]benzofuran-9b-yl)-2-oxo pentanamide]	< 0.1	> 10	> 10	< 0.01	< 0.01	< 0.01	> 10	> 10
CC(C)c1ccc2c(c1)OC1(O)c3c(cccc3[N+](=O)[O-])C(=O)C21NC(=O)C(=O)CCc1ccccc1 (stereo not shown) [Example 53, N-(4b-hydroxy-7-isopropyl-4-nitro-10-oxo-4b, 10-dihydro-9bH-indeno[1,2-b]benzofuran-9b-yl)-2-oxo-4-phenyl butanamide]	> 10	4.8 (≈ 9.59 µM)	> 4.8	< 10	< 10	> 4.8	> 10	> 4.8
Cc1cc(C)c(C(=O)C(=O)NC23C(=O)c4c(N)cccc4C2(O)Oc2cc(C(C)C)ccc23)c(C)c1 (stereo not shown) [Example 54, N-(1-amino-4b-hydroxy-7-isopropyl-10-oxo-4b, 10-dihydro-9bH-indeno[1,2-b]benzofuran-9b-yl)-2-mesityl-2-oxo acetamide]	< 10	8.6 (≈ 17.7 µM)	> 8.6	< 0.1	< 0.1	< 1	> 10	> 8.6
CC(C)c1ccc2c(c1)OC1(O)c3ccccc3C(=O)C21N/C(=N\C(=O)OC(C)(C)C)NC(=O)OC(C)(C)C (stereo not shown) [Example 55]	> 10	> 10	> 10	< 1	< 1	< 10	> 10	> 10
CC(C)c1ccc2c(c1)OC1(O)c3ccccc3C(=O)C21OC(=O)NCCNC(=O)OC(C)(C)C (stereo not shown) [Example 56, Tert-butyl (4b-hydroxy-7-isopropyl-10-oxo-4b, 10-dihydro-9bH-indeno[1,2-b]benzofuran-9b-yl)ethan-1,2-diyl dicarbamate]	> 10	> 10	> 10	< 10	< 10	> 10	> 10	> 10
COc1cc(C(=O)C(=O)NC23C(=O)c4cccc([N+](=O)[O-])c4C2(O)Oc2cc(C(C)C)ccc23)cc(OC)c1OC (stereo not shown) [Example 58, N-(4b-hydroxy-7-isopropyl-4-nitro-10-oxo-4b, 10-dihydro-9bH-indeno[1,2-b]benzofuran-9b-yl) 2-oxo-2-(3,4,5-trimethoxyphenyl)acetamide]	> 10	> 10	> 10	< 10	< 10	< 10	> 10	> 10
CC(=N)NC12C(=O)c3ccccc3C1(O)Oc1cc(C(C)C)ccc12 (stereo not shown) [Example 60, N-(4b-hydroxy-7-isopropyl-10-oxo-4b, 10-dihydro-9bH-indeno[1,2-b]benzofuran-9b-yl)acetimide amide]	> 10	> 10	> 10	< 1	< 10	< 10	> 10	> 10
CC(C)c1ccc2c(c1)OC1(O)c3ccccc3C(=O)C21NC(N)=S (stereo not shown) [Example 61, 1-(4b-hydroxy-7-isopropyl-10-oxo-4b, 10-dihydro-9bH-indeno[1,2-b]benzofuran-9b-yl)thiourea]	> 10	> 10	> 10	< 0.1	< 1	< 10	> 10	> 10
CCNC(=O)OC12C(=O)c3ccccc3C1(OC)Oc1cc(C(C)C)ccc12 (stereo not shown) [Example 62, 7-isopropyl-4b-methoxy-10-oxo-4b, 10-dihydro-9bH-indeno[1,2-b]benzofuran-9b-yl ethyl carbamate]	> 10	> 10	> 10	< 10	< 10	> 10	> 10	> 10
CC(C)c1ccc2c(c1)OC1(O)c3ccccc3C(=O)C21NC(=O)CNC(=O)OC(C)(C)C (stereo not shown) [Example 63, tert-butyl (2-((4b-hydroxy-7-isopropyl-10-oxo-4b, 10-dihydro-9bH-indeno[1,2-b]benzofuran-9b-yl)amino)-2-oxoethyl)carbamate]	< 10	> 10	> 10	< 0.1	< 0.1	< 1	> 10	> 10

Source: patent US9951058B2, “Compound, pharmaceutically acceptable salt or optical isomer thereof, method for preparing the same, and pharmaceutical composition for prevention or treatment of viral diseases containing same as active ingredient” (Korea Research Institute of Chemical Technology, priority 2012, dated 2018)
